pIC50: −log10 of the molar value.

For test [1], the system named is TEL-cKIT-BaF3 (stably expressing cKIT kinase). In words: Cell proliferation, Cell Titer-Glo, TEL-cKIT-BaF3. Type of test: cell-based. To be noted: Mus musculus; incubated for 72 hours. How it is done:
(§1) The above cell lines were constructed by our laboratory.
(§2) The number of viable cells was determined by quantification of ATP in living cells using the Cell Titer-Glo® (Promega, USA) chemiluminescence cell viability assay kit.

Test [2] deals with TEL-BaF3-BMX (stably expressing BMX kinase). Description: Cell proliferation, Cell Titer-Glo, TEL-BaF3-BMX. Type of test: cell-based. Conditions: Mus musculus; incubated for 72 hours. How it is done:
as §1, §2

A further test concerns pro-B cell BaF3. Description: Cell proliferation, Cell Titer-Glo, BaF3. Type of test: cell-based. To be noted: Mus musculus, incubated for 72 hours. How it is done: as §1, §2
On the technique in general: Cellular ATP, detected with luciferase, serves as a proxy for viable cell number.

Test [3] has as its system MV4-11 (expressing FLT3/ITD mutant gene). In words: Cell proliferation, Cell Titer-Glo, MV4-11. Type of test: cell-based. To be noted: Homo sapiens, MV4-11; incubated for 72 hours; read-out: MV4-11 IC50. How it is done:
as §1, §2

Test [4] deals with MOLM-13 (expressing FLT3/ITD mutant gene and wild-type FLT3 gene). Description: Cell proliferation, Cell Titer-Glo, MOLM-13. Type of test: cell-based. Conditions: Homo sapiens, MOLM-13; incubated for 72 hours; read-out: MOLM-13 IC50. As to the method: as §1, §2
Test [5] relates to TEL-BaF3-BLK (stably expressing BLK kinase). In words: Cell proliferation, Cell Titer-Glo, TEL-BaF3-BLK. Type of test: cell-based. Conditions: Mus musculus; incubated for 72 hours. As to the method: as §1, §2
Test [6] relates to TEL-BaF3-FLT3/ITD (stably expressing FLT3/ITD mutant activated kinase). In words: Cell proliferation, Cell Titer-Glo, TEL-BaF3-FLT3/ITD. Type of test: cell-based, mouse. To be noted: Mus musculus, 72 h, incubated for 72 hours; read-out: TEL-BaF3-FLT3/ITD IC50. How it is done: as §1, §2
Test [7] deals with TEL-JAK1-BaF3 (stably expressing JAK1 kinase). Description: Cell proliferation, Cell Titer-Glo, TEL-JAK1-BaF3. Type of test: cell-based. To be noted: Mus musculus; incubated for 72 hours. As to the method:
as §1, §2

The target in the next test is BTK protein kinase (Homo sapiens (Human), UniProt Q06187). Description: In vitro inhibition activity (enzymatic activity), ADP-Glo, BTK. Type of test: biochemical. To be noted: ATP 10 μM. For orientation: In ADP-Glo the light output rises with the ADP produced.
Sequence of BTK protein kinase (Q06187 whole entry): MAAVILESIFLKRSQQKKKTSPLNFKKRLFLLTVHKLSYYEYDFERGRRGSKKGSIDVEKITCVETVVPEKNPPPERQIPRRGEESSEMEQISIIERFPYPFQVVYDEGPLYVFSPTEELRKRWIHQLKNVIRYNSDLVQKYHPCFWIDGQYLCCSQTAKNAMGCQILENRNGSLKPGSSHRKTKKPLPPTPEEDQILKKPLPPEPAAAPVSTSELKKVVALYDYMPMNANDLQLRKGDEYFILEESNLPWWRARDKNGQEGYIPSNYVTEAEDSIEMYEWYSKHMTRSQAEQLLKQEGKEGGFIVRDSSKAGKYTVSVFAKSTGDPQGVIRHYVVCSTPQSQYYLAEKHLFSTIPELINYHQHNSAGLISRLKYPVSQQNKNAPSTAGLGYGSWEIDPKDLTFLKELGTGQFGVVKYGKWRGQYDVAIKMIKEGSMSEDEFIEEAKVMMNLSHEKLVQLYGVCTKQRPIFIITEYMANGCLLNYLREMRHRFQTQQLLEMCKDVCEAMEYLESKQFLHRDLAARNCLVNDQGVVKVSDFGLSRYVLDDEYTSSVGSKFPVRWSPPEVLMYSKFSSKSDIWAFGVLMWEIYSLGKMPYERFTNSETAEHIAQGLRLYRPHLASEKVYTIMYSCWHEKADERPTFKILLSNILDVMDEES
For test [8], the system named is BaF3-FLT3-ITD-F691L (stably expressing FLT3/ITD F691L mutant activated kinase). Description: Cell proliferation, Cell Titer-Glo, BaF3-FLT3-ITD-F691L. To be noted: Mus musculus; incubated for 72 hours; read-out: BaF3-FLT3-ITD-F691L IC50. Type of test: cell-based. As to the method: as §1, §2
The subject of test [9] is OCI-AML-3 (expressing FLT3 A680V mutant gene). In words: Cell proliferation, Cell Titer-Glo, OCI-AML3. Type of test: cell-based. Conditions: Homo sapiens, incubated for 72 hours. As to the method: as §1, §2
For test [10], the system named is TPR-MET-BaF3 (stably expressing MET kinase). In words: Cell proliferation, Cell Titer-Glo, TPR-MET-BaF3. Type of test: cell-based. Conditions: Mus musculus; incubated for 72 hours. As to the method:
as §1, §2

Test [11] relates to U937 (expressing wild-type FLT3 gene). Description: Cell proliferation, Cell Titer-Glo, U937. Type of test: cell-based, human. To be noted: Homo sapiens, U-937, 72 h, incubated for 72 hours; read-out: U937 IC50. How it is done: as §1, §2
Test [12] relates to TEL-BaF3-FLT3-D835Y (stably expressing FLT3 D835Y mutant activated kinase). Description: Cell proliferation, Cell Titer-Glo, TEL-BaF3-FLT3-D835Y. Type of test: cell-based. Conditions: Mus musculus; incubated for 72 hours; read-out: TEL-BaF3-FLT3-D835Y IC50. How it is done:
as §1, §2

Test [13] has as its system MOLM-14 (expressing FLT3/ITD mutant gene and wild-type FLT3 gene). In words: Cell proliferation, Cell Titer-Glo, MOLM-14. Conditions: Homo sapiens, MOLM-14; incubated for 72 hours; read-out: MOLM-14 IC50. Type of test: cell-based. How it is done:
as §1, §2

In the case of `NC(=O)CC[C@@H](N)C(=O)N1CCC[C@@H](n2nc(-c3ccc(Oc4ccccc4)cc3)c3c(N)ncnc32)C1` [Compound 57], the pIC50 in test [1] was 5.47; in test [2], 5.64; in the test on pro-B cell BaF3, 5.07; in test [3] it was 7.22; in test [4], 6.12; in [5] it was 6.27. For the same compound, the pIC50 in test [6] was 6.92; in test [7] it was 5.33.

For the compound `CC(C)C[C@@H](N)C(=O)N1CC[C@@H](n2nc(-c3ccc(Oc4ccccc4)cc3)c3c(N)ncnc32)C1` [Compound 28, (R)-2-amino-1-((R)-3-(4-amino-(4-phenoxyphenyl)-1H-pyrazolo[3,4-d]pyrimidin-1-yl)pyrrolidin-1-yl)-4-methylpentan-1-one], the pIC50 in [1] is 5.28; in [2], 6.41; in the test with pro-B cell BaF3 it was 5.67; in test [3], 6.92; in test [4], 5.72; in test [5], 7.08. Further, the pIC50 was 7.39 in test [6] and 6.04 in test [7].

`CC(C)[C@@H](N)C(=O)N1CCC[C@@H](n2nc(-c3ccc(Oc4ccccc4)cc3)c3c(N)ncnc32)C1` (stereo in doubt) [Compound 45, (R)-2-amino-1-((R)-3-(4-amino-(4-phenoxyphenyl)-1H-pyrazolo[3,4-d]pyrimidin-1-yl)piperidin-1-yl)-3-methylbutanone]: the pIC50 is 7.04 in test [2]; 5.85 in the test on pro-B cell BaF3; 6.59 on BTK protein kinase; 7.57 in test [3]; 6.43 in [8]; 7.60 in test [4]. In addition, the pIC50 was 5.38 in test [9]; 5.86 in [10]; 7.02 in [5]; less than 5.00 in test [11]; 7.77 in [6].

`CC(C)C[C@H](N)C(=O)N1CCC[C@@H](n2nc(-c3ccc(Oc4ccccc4)cc3)c3c(N)ncnc32)C1` [Compound 12, (S)-2-amino-1-((R)-3-(4-amino-(4-phenoxyphenyl)-1H-pyrazolo[3,4-d]pyrimidin-1-yl)piperidin-1-yl)-4-methylpentan-1-one]: the pIC50 in test [1] is 6.00; in test [2], 6.22; at BTK protein kinase, 6.46; in test [12] it was 7.32; in [3] it was 7.19; in test [13], 7.11. Moreover, the pIC50 in test [4] is 7.34; in test [10] it was 5.82; in test [5], 6.02; in test [11] it was 5.80; in [6], 7.35; in test [7], 6.28.

As to `NCC(=O)N1CC[C@@H](n2nc(-c3ccc(Oc4ccccc4)cc3)c3c(N)ncnc32)C1` [Compound 64], the pIC50 in [1] is 5.60; in test [2], 7.05; in the test on pro-B cell BaF3, 5.12; in test [3], 6.76; in [4], 6.32; in test [5], 8.01. The pIC50 was 7.10 in test [6] and 5.89 in test [7].

As to `CN(C)CC(=O)N1CC[C@@H](n2nc(-c3ccc(Oc4ccccc4)cc3)c3c(N)ncnc32)C1` [Compound 65], the pIC50 in test [1] was 5.46; in [2], 5.92; with pro-B cell BaF3, 5.07; in [3], 7.08; in [4], 6.64; in test [5] it was 6.44. The pIC50 in test [6] is 7.39; in test [7], 6.05.

Source of the values: patent publication US10266535B2, “Inhibitor of FLT3 kinase and use thereof” (HEFEI INSTITUTES OF PHYSICAL SCIENCE, CHINESE ACADEMY OF …, priority 2015, dated 2019).
